In DBAASP:
In brackets after ≈: the same amount, converted by molar mass. Several values for one entry are separate records, joined by “and”; a condition that tells them apart may be missing. Identical values can stand only once. One block for each compound: values may come before it.

Columns and labels:
Test in all cases: ≥ marks a high value that may be exact or a test limit, other limits are often not marked, values filed in µg/mL are converted to µM
[1] = tested on: Staphylococcus aureus P33
[2] = tested on: Staphylococcus saprophyticus M2981
[3] = tested on: Enterococcus faecium M2664
[4] = tested on: Staphylococcus aureus M6784
[5] = tested on: Enterococcus faecium PZAP 95
[6] = tested on: Escherichia coli ATCC 25922
[7] = tested on: Enterococcus faecalis ATCC 51299
[8] = tested on: Staphylococcus aureus P204
[9] = tested on: Enterococcus faecalis ATCC 29212
[10] = tested on: Staphylococcus cohnii
[11] = tested on: Klebsiella pneumoniae PFAV 3
[12] = tested on: Klebsiella pneumoniae M5825
[13] = tested on: Escherichia coli PCOS 15
[14] = tested on: Pseudomonas aeruginosa PACO12
[15] = tested on: Staphylococcus haemolyticus M2976
[16] = tested on: Staphylococcus aureus ATCC 25923
[17] = tested on: Acinetobacter sp. M9665
[18] = tested on: Staphylococcus epidermidis M2923
[19] = tested on: Acinetobacter sp. M9013
[20] = tested on: Klebsiella pneumoniae M13540
[21] = tested on: Staphylococcus epidermidis M2921
[22] = tested on: Staphylococcus hominis M2967
[23] = tested on: Staphylococcus hominis M2973
[24] = tested on: Enterococcus faecalis M6534
[25] = tested on: Klebsiella pneumoniae M9170
[26] = tested on: Staphylococcus warneri
[27] = tested on: Escherichia coli M5306
[28] = tested on: Staphylococcus saprophyticus M4070
[29] = tested on: Acinetobacter sp. M5949
[30] = tested on: Pseudomonas aeruginosa ATCC 27853
[31] = tested on: Escherichia coli M9884
[32] = tested on: Klebsiella pneumoniae M9491
[33] = tested on: Enterococcus gallinarum M2685
[34] = tested on: Enterococcus gallinarum M2723
[35] = tested on: Acinetobacter sp. M13523
[36] = tested on: Enterococcus faecalis M4899
[37] = tested on: Staphylococcus aureus ATCC 43300
[38] = tested on: Listeria monocytogenes ATCC 19115
[39] = tested on: Klebsiella pneumoniae ATCC 13883
[40] = tested on: Salmonella enterica subsp. enterica serovar Enteritidis ATCC 13076
[41] = tested on: Staphylococcus aureus ATCC BAA-39
[42] = tested on: Staphylococcus aureus ATCC 29213
[43] = tested on: Candida albicans ATCC 37092
[44] = tested on: Escherichia coli CCARM 1238
[45] = tested on: Bacillus subtilis KCTC 3068
[46] = tested on: Salmonella typhimurium CCARM 8003
[47] = tested on: Staphylococcus aureus KCTC 1621
[48] = tested on: Escherichia coli KCTC 1682
[49] = tested on: Escherichia coli CCARM 1229
[50] = tested on: Staphylococcus epidermidis KCTC 1917
[51] = tested on: Salmonella typhimurium KCTC 1926
[52] = tested on: Staphylococcus aureus CCARM 3114
[53] = tested on: Pseudomonas aeruginosa KCTC 1637
[54] = tested on: Staphylococcus aureus CCARM 3089

MIC [1]: ≥ 52.9 µM
MIC [2]: 3.3 µM (≈ 8 µg/mL)
MIC [3]: 3.3 µM (≈ 8 µg/mL)
MIC [4]: 13.2 µM (≈ 32 µg/mL)
MIC [5]: 6.61 µM (≈ 16 µg/mL)
MIC [6]: 13.2 µM (≈ 32 µg/mL)
MIC [7]: ≥ 106 µM
MIC [8]: 26.4 µM (≈ 64 µg/mL)
MIC [9]: 52.9 µM (≈ 128 µg/mL)
MIC [10]: 6.61 µM (≈ 16 µg/mL)
MIC [11]: ≥ 52.9 µM
MIC [12]: 3.3 µM (≈ 8 µg/mL)
MIC [13]: 26.4 µM (≈ 64 µg/mL)
MIC [14]: 26.4 µM (≈ 64 µg/mL)
MIC [16]: 26.4 µM (≈ 64 µg/mL)
MIC [17]: 13.2 µM (≈ 32 µg/mL)
MIC [18]: 6.61 µM (≈ 16 µg/mL)
MIC [19]: 3.3 µM (≈ 8 µg/mL)
MIC [20]: 6.61 µM (≈ 16 µg/mL)
MIC [21]: 3.3 µM (≈ 8 µg/mL)
MIC [22]: 3.3 µM (≈ 8 µg/mL)
MIC [23]: 1.65 µM (≈ 4 µg/mL)
MIC [24]: ≥ 106 µM
MIC [25]: 13.2 µM (≈ 32 µg/mL)
MIC [26]: 3.3 µM (≈ 8 µg/mL)
MIC [27]: 1.65 µM (≈ 4 µg/mL)
MIC [28]: 13.2 µM (≈ 32 µg/mL)
MIC [29]: 6.61 µM (≈ 16 µg/mL)
MIC [30]: 26.4 µM (≈ 64 µg/mL)
MIC [31]: 13.2 µM (≈ 32 µg/mL)
MIC [32]: 26.4 µM (≈ 64 µg/mL)
MIC [33]: 6.61 µM (≈ 16 µg/mL)
MIC [34]: 13.2 µM (≈ 32 µg/mL)
MIC [35]: 1.65 µM (≈ 4 µg/mL)
MIC [36]: ≥ 52.9 µM
SMILES: CC[C@H](C)[C@H](NC(=O)[C@H](CCCN=C(N)N)NC(=O)[C@H](CCCCN)NC(=O)[C@H](Cc1ccccc1)NC(=O)[C@H](CCC(=O)O)NC(=O)[C@H](CCCCN)NC(=O)[C@H](Cc1c[nH]c2ccccc12)NC(=O)[C@H](CCCCN)NC(=O)[C@H](CCCCN)NC(=O)[C@H](CC(C)C)NC(=O)[C@H](Cc1c[nH]c2ccccc12)NC(=O)[C@H](CCCCN)NC(=O)[C@H](CCCCN)NC(=O)[C@H](CC(C)C)NC(=O)[C@H](CC(C)C)NC(=O)CN)C(=O)N[C@H](C(=O)NCC(=O)N[C@@H](Cc1ccc(O)cc1)C(N)=O)C(C)C [GLLKKWLKKWKEFKRIVGY]
MIC [15]: 3.3 µM (≈ 8 µg/mL)

MIC [6]: 22.6 µM and 32 µM
MIC [37]: 32 µM (≈ 55.9 µg/mL)
MIC [16]: 11.3 µM and 32 µM
MIC [38]: 22.6 µM and ≥ 32 µM
MIC [39]: 16 µM and ≥ 32 µM
MIC [40]: 16 µM (≈ 27.9 µg/mL)
MIC [41]: ≥ 32 µM
SMILES: CC[C@H](C)[C@H](NC(=O)[C@H](CCCCN)NC(=O)[C@H](CCCN=C(N)N)NC(=O)[C@H](CC(C)C)NC(=O)[C@H](Cc1ccccc1)NC(=O)[C@H](CCCN=C(N)N)NC(=O)CNC(=O)[C@H](Cc1ccccc1)NC(=O)[C@H](CCCN=C(N)N)NC(=O)CNC(=O)[C@H](CCCN=C(N)N)NC(=O)[C@H](CCC(N)=O)NC(=O)[C@@H](NC(=O)[C@@H](N)CC(C)C)C(C)C)C(=O)O [LVQRGRFGRFLRKI]

MIC [42]: > 500 µM
MIC [6]: 114 µM (≈ 218 µg/mL)
MIC [43]: ≥ 500 µM
SMILES: CC(C)C[C@H](NC(=O)[C@@H](N)CCCN=C(N)N)C(=O)N1CCC[C@H]1C(=O)N[C@@H](CCCN=C(N)N)C(=O)N1CCC[C@H]1C(=O)N[C@@H](CCCN=C(N)N)C(=O)N1CCC[C@H]1C(=O)N[C@@H](CCCN=C(N)N)C(=O)N1CCC[C@H]1C(=O)N[C@@H](CC(C)C)C(=O)N1CCC[C@H]1C(=O)N[C@@H](Cc1ccccc1)C(=O)N1CCC[C@H]1C(=O)N[C@@H](CCCN=C(N)N)C(=O)N1CCC[C@H]1C(=O)NCC(=O)O [RLPRPRPRPLPFPRPG]

MIC [44]: 8 µM (≈ 8.32 µg/mL)
MIC [45]: 8 µM (≈ 8.32 µg/mL)
MIC [46]: ≥ 32 µM
MIC [47]: 16 µM (≈ 16.6 µg/mL)
MIC [48]: 8 µM (≈ 8.32 µg/mL)
MIC [49]: 16 µM (≈ 16.6 µg/mL)
MIC [50]: 4 µM (≈ 4.16 µg/mL)
MIC [51]: ≥ 32 µM
MIC [52]: ≥ 32 µM
MIC [53]: ≥ 32 µM
MIC [54]: 16 µM (≈ 16.6 µg/mL)
SMILES: CC[C@H](C)[C@H](NC(=O)[C@H](C)NC(=O)[C@H](CC(C)C)NC(=O)[C@H](Cc1c[nH]c2ccccc12)NC(=O)[C@H](CC(C)C)NC(=O)[C@@H](N)CCCN=C(N)N)C(=O)NCC(=O)N[C@@H](CCCN=C(N)N)C(=O)NCC(N)=O [RLWLAIGRG]
